Patent publication US7309584B2, “Mutations of the MDR1 P-glycoprotein that improves its ability to confer resistance to chemotherapeutic drugs” (The Board of Trustees of the University of Illinois, priority 2000, dated 2007)

Tests used:
NIH 3T3 cells [1] = assay: clonogenic assays for drug resistance of NIH 3T3 cells transduced with MDR1 constructs; format: cell-based; details: for doxorubicin resistance relative to the LMDR1-G185V construct: FIG. 5B, 6B; for etoposide resistance relative to the LMDR1-G185V construct / fold increase in etoposide resistance relative to the LMDR1-G185V construct: FIG. 5A; for etoposide resistance relative to the LMDR1-G185V construct: 6A; for taxol resistance relative to the LMDR1-G185V construct: FIG. 6E; for vinblastine resistance relative to the LMDR1-G185V construct: FIG. 6D; for colchicine resistance relative to cells transduced with wild-type MDR1: FIG. 4B; for doxorubicin resistance relative to cells transduced with wild-type MDR1: FIG. 4C; for etoposide resistance relative to cells transduced with wild-type MDR1: FIG. 4A; for taxol resistance relative to cells transduced with wild-type MDR1: FIG. 4E; for vinblastine resistance relative to cells transduced with wild-type MDR1: FIG. 4D; for colchicine resistance relative to the LMDR1-G185V construct: FIG. 5C, 6C; for fold increase in doxorubicin resistance relative to the LMDR1-G185V construct: transduced NIH 3T3 cells, Table II; for fold increase in etoposide resistance relative to the LMDR1-G185V construct: transduced NIH 3T3 cells sorted for similar P-glycoprotein levels
Description: FIGS. 4A through 4E illustrate the results of clonogenic assays for resistance to etoposide (panel A), colchicine (panel B), doxorubicin (panel C), vinblastine (panel D), and taxol (panel E) for NIH 3T3 cells transduced with LXSN (closed squares), wild-type MDR1 (closed circles), MDR1-G185V (open circles), MDR1-I186N (closed triangles), or MDR1-G185V/I186N (open triangles);
FIGS. 5A through 5C illustrate the results of clonogenic assays for resistance to etoposide (panel A), doxorubicin (panel B), and colchicine (panel C) for NIH 3T3 cells transduced with LMDR1-G185V (open circles), LMDR1-G185V-EK2 (closed triangles), LMDR1-G185V-EK3 (open triangles), or LMDR1-G185V-EK5 (closed diamonds);
FIGS. 6A through 6E illustrate the results of clonogenic assays for resistance to etoposide (panel A), doxorubicin (panel B), colchicine (panel C), vinblastine (panel D), and taxol (panel E) for NIH 3T3 cells transduced with LMDR1-G185V (closed circles), LMDR1-G185V-L56F (open circles), LMDR1-G185V-I190F/M197F (closed triangles), LMDR1-G185V-G763W (open triangles), or LMDR1-G185V-G844Q (closed squares).
Retroviral vectors carrying LXSN (negative control carrying the neomycin/G418 resistance gene), wild-type MDR1, MDR1-G185V, MDR1-I186N, or MDR1-G185V/I186N were individually transduced into NIH 3T3 cells. Populations transduced with MDR1 containing vectors were stained with the P-glycoprotein-specific monoclonal antibody MRK16, and then sorted to obtain cell populations expressing a similar level of P-glycoprotein.
NIH 3T3 cells were transduced with the LMDR1-G185V, LMDR1-G185V-EK2, LMDR1-G185V-EK3, or LMDR1-G185V-EK5 constructs, and the transduced cells were then sorted by FACS to generate pure populations of P-glycoprotein positive cells having similar levels of P-glycoprotein. Following sorting, the cell populations were analyzed for their drug resistance.
To investigate the mutants 8-A4, 5-C3, 2-B2, and 2-B1, having mutations in one of the transmembrane domains, MDR1-G185V cDNA was modified by site-directed mutagenesis to create the following constructs: LMDR1-G185V-L56F (leucine to phenylalanine mutation at residue 56), LMDR1-G185V-I190F/M197F (isoleucine to phenylalanine mutation at amino acid residue 190 and methionine to phenylalanine mutation at residue 197), LMDR1-G185V-G763W (glycine to tryptophan mutation at residue 763), and LMDR1-G185V-G844Q (glycine to glutamine mutation at residue 844). NIH 3T3 cells were transduced with either the LMDR1-G185V construct or one of the transmembrane mutant constructs, and the transduced cells were then sorted by FACS to generate pure populations of P-glycoprotein positive cells having similar levels of P-glycoprotein. Following sorting, the cell populations were analyzed for their drug resistance.

NIH 3T3 cells [2] = assay: etoposide resistance / survival in etoposide of NIH 3T3 cells transduced with rescued MDR1-G185V mutants; format: cell-based; details: mutant fragments recloned into LMDR1-G185V, similar MDR1 expression
Method: Mutant MDR1-G185V cDNA isolated from eleven clonal lines was tested for the ability to confer elevated resistance to etoposide as compared to unmutagenized MDR1-G185V. Fragments of MDR1 cDNA containing mutations were first excised from the MDR1 cDNA using restriction endonucleases that recognize appropriate sites flanking the mutation, and then the fragments were recloned into the parental LMDR1-G185V vector. Naïve NIH 3T3 cells were individually transduced with the eleven LMDR1-G185V mutants, wild-type LMDR1-G185V, or LXSN, and then analyzed by FACS for MDR1 expression. […] The cell populations were then assayed for etoposide resistance.
An array selection strategy was employed to isolate additional MDR1 mutants conferring hyper-resistance to etoposide from the cells transduced with Mut II and selected in 10 μg/mL etoposide, as described in Example 1 (this selection scheme is shown in FIG. 1C and in FIG. 2). The 131 clonal lines from Example 1 were divided into four pools. MDR1 cDNA was recovered by PCR from each of the four pools, recloned back into LXSN, and used to transform bacterial cells to generate four MDR1 mutant libraries. These libraries were plated; individual bacterial colonies were picked and tested by array analysis. […]

Substance: I190F/M197F: MDR1-G185V construct with isoleucine to phenylalanine at residue 190 and methionine to phenylalanine at residue 197
- doxorubicin resistance relative to the LMDR1-G185V construct (NIH 3T3 cells [1]): moderate increases in doxorubicin resistance
- etoposide resistance relative to the LMDR1-G185V construct (NIH 3T3 cells [1]): the greatest resistance
- taxol resistance relative to the LMDR1-G185V construct (NIH 3T3 cells [1]): significant increase in taxol resistance
- vinblastine resistance relative to the LMDR1-G185V construct (NIH 3T3 cells [1]): increased vinblastine resistance

Substance: MDR1-I186N: mutant human P-glycoprotein having an asparagine substitution at position 186 (SEQ ID NO: 4)
- etoposide resistance as compared to unmutagenized MDR1-G185V (NIH 3T3 cells [2]): increased resistance to etoposide
- colchicine resistance relative to cells transduced with wild-type MDR1 (NIH 3T3 cells [1]): increase colchicine resistance
- doxorubicin resistance relative to cells transduced with wild-type MDR1 (NIH 3T3 cells [1]): doxorubicin resistance was enhanced
- etoposide resistance relative to cells transduced with wild-type MDR1 (NIH 3T3 cells [1]): increase etoposide resistance to a similar degree as the G185V substitution
- taxol resistance relative to cells transduced with wild-type MDR1 (NIH 3T3 cells [1]): increase resistance to both of these drugs
- vinblastine resistance relative to cells transduced with wild-type MDR1 (NIH 3T3 cells [1]): increase resistance to both of these drugs

Substance: G763W: MDR1-G185V construct with glycine to tryptophan mutation at residue 763
- doxorubicin resistance relative to the LMDR1-G185V construct (NIH 3T3 cells [1]): moderate increases in doxorubicin resistance
- taxol resistance relative to the LMDR1-G185V construct (NIH 3T3 cells [1]): no effect on taxol resistance
- vinblastine resistance relative to the LMDR1-G185V construct (NIH 3T3 cells [1]): only a moderate increase in vinblastine resistance

Substance: LMDR1-G185V-EK3: MDR1-G185V construct with glutamic acid to lysine substitutions at positions 643, 647, and 652
- colchicine resistance relative to the LMDR1-G185V construct (NIH 3T3 cells [1]): decrease colchicine resistance
- doxorubicin resistance relative to the LMDR1-G185V construct (NIH 3T3 cells [1]): increase doxorubicin resistance
- fold increase in doxorubicin resistance relative to the LMDR1-G185V construct (NIH 3T3 cells [1]): nearly a four-fold increase
- fold increase in etoposide resistance relative to the LMDR1-G185V construct (NIH 3T3 cells [1]): 1.6 fold

Substance: L56F: MDR1-G185V construct with leucine to phenylalanine mutation at residue 56
- colchicine resistance relative to the LMDR1-G185V construct (NIH 3T3 cells [1]): increased colchicine resistance
- doxorubicin resistance relative to the LMDR1-G185V construct (NIH 3T3 cells [1]): very strong resistance to doxorubicin
- taxol resistance relative to the LMDR1-G185V construct (NIH 3T3 cells [1]): decreased taxol resistance
- vinblastine resistance relative to the LMDR1-G185V construct (NIH 3T3 cells [1]): decreased vinblastine resistance

Substance: LMDR1-G185V-EK2: MDR1-G185V construct with glutamic acid to lysine substitutions at positions 634 and 636
- colchicine resistance relative to the LMDR1-G185V construct (NIH 3T3 cells [1]): decrease colchicine resistance
- doxorubicin resistance relative to the LMDR1-G185V construct (NIH 3T3 cells [1]): increase doxorubicin resistance
- fold increase in doxorubicin resistance relative to the LMDR1-G185V construct (NIH 3T3 cells [1]): almost two-fold increase
- fold increase in etoposide resistance relative to the LMDR1-G185V construct (NIH 3T3 cells [1]): 1.4 fold

Substance: LMDR1-G185V-EK5: MDR1-G185V construct with glutamic acid to lysine substitutions at positions 634, 636, 643, 647 and 652
- colchicine resistance relative to the LMDR1-G185V construct (NIH 3T3 cells [1]): the greatest decrease in colchicine resistance
- etoposide resistance relative to the LMDR1-G185V construct (NIH 3T3 cells [1]): the effect of the double and triple lysine mutants was not additive

Substance: MDR1-G185V: human P-glycoprotein having a glycine to valine substitution at position 185 (SEQ ID NO: 3) [reference compound]
- colchicine resistance relative to cells transduced with wild-type MDR1 (NIH 3T3 cells [1]): an even higher level of colchicine resistance
- doxorubicin resistance relative to cells transduced with wild-type MDR1 (NIH 3T3 cells [1]): doxorubicin resistance was enhanced
- etoposide resistance relative to cells transduced with wild-type MDR1 (NIH 3T3 cells [1]): increase etoposide resistance
- taxol resistance relative to cells transduced with wild-type MDR1 (NIH 3T3 cells [1]): decrease resistance levels to both of these drugs
- vinblastine resistance relative to cells transduced with wild-type MDR1 (NIH 3T3 cells [1]): decrease resistance levels to both of these drugs

Substance: MDR1-G185V/I186N: mutant human P-glycoprotein having both G185V and I186N substitutions
- colchicine resistance relative to cells transduced with wild-type MDR1 (NIH 3T3 cells [1]): indistinguishable from that obtained for cells transduced with the MDR1-G185V construct
- doxorubicin resistance relative to cells transduced with wild-type MDR1 (NIH 3T3 cells [1]): an even higher level of doxorubicin resistance
- etoposide resistance relative to cells transduced with wild-type MDR1 (NIH 3T3 cells [1]): higher level of etoposide resistance than cells transduced with either the MDR1-G185V or MDR1-I186N constructs
